Reference: patent US20120115877A1, “Facially Amphiphilic Compounds, Compositions, And Uses Thereof In Treating Cancer” (POLYMEDIX, INC., priority 2010, published 2012)

Experiments:
Format in all cases: cell-based, human
T-47D = assay: NCI-60 screen, Breast Cancer; details: 10 μM
Protocol: (§1) Several compounds were tested at single concentrations (10 μM) against 59 different human tumor cell lines, representing leukemia, melanoma and cancers of the lung, colon, brain, ovary, breast, prostate, and kidney (see, Table 3). The human tumor cell lines of the cancer screening panel were grown in RPMI 1640 medium containing 5% fetal bovine serum and 2 mM L-glutamine. For a typical screening experiment, cells were inoculated into 96 well microtiter plates in 100 μL at plating densities ranging from 5,000 to 40,000 cells/well depending on the doubling time of individual cell lines. After cell inoculation, the microtiter plates were incubated at 37° C., 5% CO2, 95% air and 100% relative humidity for 24 hours prior to addition of the compounds.
(§2) After 24 hours, two plates of each cell line were fixed in situ with TCA, to represent a measurement of the cell population for each cell line at the time of drug addition (Tz). Compounds were solubilized in dimethyl sulfoxide at 400-fold the desired final maximum test concentration and stored frozen prior to use. At the time of drug addition, an aliquot of frozen concentrate was thawed and diluted to twice the desired final maximum test concentration with complete medium containing 50 μg/ml gentamicin. Additional four, 10-fold or ½ log serial dilutions were made to provide a total of five compound concentrations plus control. Aliquots of 100 μl of these different drug dilutions were added to the appropriate microtiter wells already containing 100 μl of medium, resulting in the required final compound concentrations.
(§3) Following drug addition, the plates were incubated for an additional 48 hours at 37° C., 5% CO2, 95% air, and 100% relative humidity. For adherent cells, the assay was terminated by the addition of cold TCA. Cells were fixed in situ by the gentle addition of 50 μl of cold 50% (w/v) TCA (final concentration, 10% TCA) and incubated for 60 minutes at 4° C. The supernatant was discarded, and the plates were washed five times with tap water and air dried. Sulforhodamine B (SRB) solution (100 μl) at 0.4% (w/v) in 1% acetic acid was added to each well, and plates were incubated for 10 minutes at room temperature. After staining, unbound dye was removed by washing five times with 1% acetic acid and the plates were air dried. Bound stain was subsequently solubilized with 10 mM trizma base, and the absorbance was read on an automated plate reader at a wavelength of 515 nm. For suspension cells, the methodology was the same except that the assay was terminated by fixing settled cells at the bottom of the wells by gently adding 50 μl of 80% TCA (final concentration, 16% TCA). Using the seven absorbance measurements (time zero, (Tz), control growth, (C), and test growth in the presence of drug at the five concentration levels (Ti)), the percentage growth was calculated at each of the compound concentrations levels. Percentage growth inhibition was calculated as:
(§4) [(Ti−Tz)/(C−Tz)]×100 for concentrations for which Ti>/=Tz
(§5) [(Ti−Tz)/Tz]×100 for concentrations for which Ti<Tz.
(§6) Three dose response parameters were calculated for each compound. Growth inhibition of 50% (GI50) was calculated from [(Ti−Tz)/(C−Tz)]×100=50, which is the compound concentration resulting in a 50% reduction in the net protein increase (as measured by SRB staining) in control cells during the compound incubation. The compound concentration resulting in total growth inhibition (TGI) was calculated from Ti=Tz. The LC50 (concentration of compound resulting in a 50% reduction in the measured protein at the end of the compound treatment as compared to that at the beginning) indicating a net loss of cells following treatment was calculated from [(Ti−Tz)/Tz]×100=−50. Values were calculated for each of these three parameters if the level of activity was reached; however, if the effect was not reached or was exceeded, the value for that parameter was expressed as greater or less than the maximum or minimum concentration tested.

BT-549 = assay: NCI-60 screen, Breast Cancer; details: 10 μM
Protocol: as §1, §2, §3, §4, §5, §6

MDA-MB-31/ATCC = assay: NCI-60 screen, Breast Cancer; details: 10 μM, MDA-MB-231/ATCC
Protocol: as §1, §2, §3, §4, §5, §6

MCF7 = assay: NCI-60 screen, Breast Cancer; details: 10 μM
Protocol: as §1, §2, §3, §4, §5, §6

MDA-MB-468 = assay: NCI-60 screen, Breast Cancer; details: 10 μM
Protocol: as §1, §2, §3, §4, §5, §6

PC-3 = assay: NCI-60 screen, Prostate Cancer; details: 10 μM
Protocol: as §1, §2, §3, §4, §5, §6

DU-145 = assay: NCI-60 screen, Prostate Cancer; details: 10 μM
Protocol: as §1, §2, §3, §4, §5, §6

MOLT-4 = assay: NCI-60 screen, Leukemia; details: 10 μM
Protocol: as §1, §2, §3, §4, §5, §6

K-562 = assay: NCI-60 screen, Leukemia; details: 10 μM
Protocol: as §1, §2, §3, §4, §5, §6

HL-60(TB) = assay: NCI-60 screen, Leukemia; details: 10 μM
Protocol: as §1, §2, §3, §4, §5, §6

SR = assay: NCI-60 screen, Leukemia; details: 10 μM
Protocol: as §1, §2, §3, §4, §5, §6

CCRF-CEM = assay: NCI-60 screen, Leukemia; details: 10 μM
Protocol: as §1, §2, §3, §4, §5, §6

OVCAR-4 = assay: NCI-60 screen, Ovarian Cancer; details: 10 μM
Protocol: as §1, §2, §3, §4, §5, §6

SK-OV-3 = assay: NCI-60 screen, Ovarian Cancer; details: 10 μM
Protocol: as §1, §2, §3, §4, §5, §6

OVCAR-8 = assay: NCI-60 screen, Ovarian Cancer; details: 10 μM
Protocol: as §1, §2, §3, §4, §5, §6

IGROV1 = assay: NCI-60 screen, Ovarian Cancer; details: 10 μM
Protocol: as §1, §2, §3, §4, §5, §6

OVCAR-5 = assay: NCI-60 screen, Ovarian Cancer; details: 10 μM
Protocol: as §1, §2, §3, §4, §5, §6

HOP-62 = assay: NCI-60 screen, Non-Small Cell Lung Cancer; details: 10 μM
Protocol: as §1, §2, §3, §4, §5, §6

EKVX = assay: NCI-60 screen, Non-Small Cell Lung Cancer; details: 10 μM
Protocol: as §1, §2, §3, §4, §5, §6

NCI-H23 = assay: NCI-60 screen, Non-Small Cell Lung Cancer; details: 10 μM
Protocol: as §1, §2, §3, §4, §5, §6

NCI-H322M = assay: NCI-60 screen, Non-Small Cell Lung Cancer; details: 10 μM
Protocol: as §1, §2, §3, §4, §5, §6

NCI-H460 = assay: NCI-60 screen, Non-Small Cell Lung Cancer; details: 10 μM
Protocol: as §1, §2, §3, §4, §5, §6

NCI-H522 = assay: NCI-60 screen, Non-Small Cell Lung Cancer; details: 10 μM
Protocol: as §1, §2, §3, §4, §5, §6

NCI-H226 = assay: NCI-60 screen, Non-Small Cell Lung Cancer; details: 10 μM
Protocol: as §1, §2, §3, §4, §5, §6

HOP-92 = assay: NCI-60 screen, Non-Small Cell Lung Cancer; details: 10 μM
Protocol: as §1, §2, §3, §4, §5, §6

A549/ATCC = assay: NCI-60 screen, Non-Small Cell Lung Cancer; details: 10 μM
Protocol: as §1, §2, §3, §4, §5, §6

## N=C(N)NCCCCC(=O)Nc1cc(C(F)(F)F)cc(NC(=O)c2cc(C(=O)Nc3cc(C(F)(F)F)cc(NC(=O)CCCCNC(=N)N)c3SCCN)ncn2)c1SCCN [Compound C]
T-47D
  Percent Growth: 14.59%
BT-549
  Percent Growth: 96.67%
MDA-MB-31/ATCC
  Percent Growth: 81.52%
MCF7
  Percent Growth: 10.27%
MDA-MB-468
  Percent Growth: −53.05%
PC-3
  Percent Growth: 77.68%
DU-145
  Percent Growth: 62.89%
MOLT-4
  Percent Growth: 45.62%
K-562
  Percent Growth: 4.995%
HL-60(TB)
  Percent Growth: 30.11%
SR
  Percent Growth: 28.12%
CCRF-CEM
  Percent Growth: 24.46%
OVCAR-4
  Percent Growth: 38.79%
SK-OV-3
  Percent Growth: 82.66%
OVCAR-8
  Percent Growth: 39.11%
IGROV1
  Percent Growth: 51.71%
OVCAR-5
  Percent Growth: 75.78%
HOP-62
  Percent Growth: 37.78%
EKVX
  Percent Growth: 59.82%
NCI-H23
  Percent Growth: 80.24%
NCI-H322M
  Percent Growth: 83.13%
NCI-H460
  Percent Growth: 28.72%
NCI-H522
  Percent Growth: −26.87%
NCI-H226
  Percent Growth: 63.82%
HOP-92
  Percent Growth: 93.99%
A549/ATCC
  Percent Growth: 37.26%

## NCCc1cc(Br)cc(C#Cc2cccc(C#Cc3cc(Br)cc(CCN)c3)c2)c1 [Compound A]
T-47D
  Percent Growth: 31.82%
BT-549
  Percent Growth: 102%
MDA-MB-31/ATCC
  Percent Growth: 4.31%
MCF7
  Percent Growth: −89.84%
MDA-MB-468
  Percent Growth: −61.5%
PC-3
  Percent Growth: 45.26%
DU-145
  Percent Growth: −83.92%
MOLT-4
  Percent Growth: −43.65%
K-562
  Percent Growth: −45.67%
HL-60(TB)
  Percent Growth: 6.88%
SR
  Percent Growth: −43.87%
CCRF-CEM
  Percent Growth: −12.43%
OVCAR-4
  Percent Growth: −28.5%
SK-OV-3
  Percent Growth: 94.37%
OVCAR-8
  Percent Growth: −14.54%
IGROV1
  Percent Growth: −4.832%
OVCAR-5
  Percent Growth: 60.77%
HOP-62
  Percent Growth: 21.99%
EKVX
  Percent Growth: 62.48%
NCI-H23
  Percent Growth: 94.81%
NCI-H322M
  Percent Growth: 53%
NCI-H460
  Percent Growth: −49.11%
NCI-H522
  Percent Growth: −78.21%
NCI-H226
  Percent Growth: 108.9%
HOP-92
  Percent Growth: 73.03%
A549/ATCC
  Percent Growth: −15.97%

## NCCCc1cccc(-c2ccc3sc4ccc(-c5cccc(CCCN)c5)cc4c3c2)c1 [Compound D]
T-47D
  Percent Growth: 90.75%
BT-549
  Percent Growth: 105.8%
MDA-MB-31/ATCC
  Percent Growth: 60.18%
MCF7
  Percent Growth: −59.63%
MDA-MB-468
  Percent Growth: 17.63%
PC-3
  Percent Growth: 73.6%
DU-145
  Percent Growth: 55.35%
MOLT-4
  Percent Growth: 2.072%
K-562
  Percent Growth: 12.99%
HL-60(TB)
  Percent Growth: 68.33%
SR
  Percent Growth: 0%
CCRF-CEM
  Percent Growth: 5.12%
OVCAR-4
  Percent Growth: 59.85%
SK-OV-3
  Percent Growth: 103.1%
OVCAR-8
  Percent Growth: 83.89%
IGROV1
  Percent Growth: 80.28%
OVCAR-5
  Percent Growth: 96.93%
HOP-62
  Percent Growth: 90.64%
EKVX
  Percent Growth: 98.18%
NCI-H23
  Percent Growth: 100.6%
NCI-H322M
  Percent Growth: 107%
NCI-H460
  Percent Growth: 69.57%
NCI-H522
  Percent Growth: 10.75%
NCI-H226
  Percent Growth: 110.1%
HOP-92
  Percent Growth: 78.26%
A549/ATCC
  Percent Growth: 72.71%
